Our source for the GI50 and TGI values is PubChem BioAssay (NCI).

Holding throughout (test): NCI tumour cell line growth inhibition, 48 h
The subject of experiment [1] is RPMI-8226 leukemia.
In experiment [2] the test system is LOX IMVI melanoma.
Experiment [3] deals with SK-OV-3 ovarian.
Experiment [4] concerns SK-MEL-5 melanoma.
Experiment [5] concerns OVCAR-5 ovarian.
Experiment [6] deals with SK-MEL-28 melanoma.
Experiment [7] relates to 786-0 renal.
Experiment [8] has as its system SK-MEL-2 melanoma.
For experiment [9], the system named is SF-295 CNS.
Experiment [10] deals with EKVX NSCLC.

Each structure is given as a SMILES string. Several values for one entry are separate records, joined by “and”; a condition that tells them apart may be missing. Identical values can stand only once.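 Cultured in 96-well plates, cells were exposed to test compound for 48 hours across five concentrations. GI50 is the concentration that inhibits growth by half. TGI denotes the concentration required for complete inhibition of growth.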

In the case of `Cn1cc(C2=C(c3cn(C)c4ccc(N)cc34)C(=O)NC2=O)c2ccccc21`, the GI50 in experiment [1] was greater than 16.5 µM; in [2], 12.2 µM; in experiment [3], 8.99 µM; in experiment [4] it was 6.91 µM; in [5] it was greater than 25 µM; in [6], 17.2 µM. Besides, the GI50 is 19.7 µM in [7], 8.46 µM in [8] and 6.83 µM in experiment [9]. The TGI in [1], in [2], in [3], in [4], in experiment [5] and in [6] was greater than 25 µM each time. Also, the results for the TGI in experiment [7], in experiment [8] and in [9] were greater than 25 µM, greater than 25 µM and greater than 22.2 µM, respectively.
On to `CC1(C)N=C(N)N=C(N)N1c1ccc(CCc2ccccc2)c(Cl)c1`, for which the GI50 in [1] was 0.336 µM; in experiment [2], 0.0426 µM; in experiment [3], 1.04 µM; in [4], 0.124 µM; in experiment [5], 0.19 µM; in [6] it was 0.391 µM. The GI50 in experiment [7] was 0.179 µM; in experiment [8], 1.01 µM; in experiment [9] it was 0.0529 µM. The TGI was determined as 14 µM in experiment [1]; 13.5 µM in experiment [2]; 18.4 µM in experiment [3]; 1.33 µM in experiment [4]; 19.7 µM in [5]; 15.9 µM in [6]. Further, the TGI in experiment [7] amounted to 14.6 µM; in experiment [8] it was 17.5 µM; in experiment [9], 11.3 µM.
For `O=C(CC(C(=O)c1cccs1)c1ccc2c(c1)OCO2)c1ccc(Br)cc1` (stereo unspecified), the TGI in experiment [1], in experiment [3], in [4], in experiment [10], in experiment [6] and in experiment [7] was greater than 100 µM in each case. Further, in experiment [9], the TGI was greater than 100 µM.
With `COc1ccc([C@H]2CC(=O)N3CCCC3N2)cc1` (stereo partly specified), the TGI in experiment [1], in experiment [3], in experiment [4], in experiment [10], in experiment [5] and in experiment [6] was greater than 100 µM each time. In addition, the TGI in experiment [7], in [8] and in experiment [9] was greater than 100 µM throughout.
In the case of `CN1C2CC(C#N)C1C=CC2=O` (stereo unspecified), the TGI in experiment [3] is 62.4 µM and > 100 µM; in experiment [4], greater than 100 µM; in experiment [10], 28 µM and > 100 µM; in experiment [5] it was 37.3 µM and > 100 µM; in experiment [6], 36.7 µM and > 100 µM; in [7], 42.6 µM and > 100 µM. Also, the TGI is 51.4 µM and > 100 µM in experiment [8]; 19.1 µM and > 100 µM in [9]. The GI50 in [4] was greater than 100 µM; in experiment [10], 14.7 µM and 62.1 µM; in experiment [5], 19.6 µM and > 100 µM; in [6], 17.8 µM and > 100 µM; in experiment [7] it was 17.4 µM and > 100 µM.
On to `O=C1c2ccccc2N2OC3(N4CCCC4)CCCC3C12c1ccccc1` (stereo unspecified), for which the TGI in [1], in experiment [3], in experiment [4], in experiment [10], in [6] and in experiment [7] was greater than 100 µM throughout. This compound gave a TGI in experiment [9] greater than 100 µM.
As for `CC(C)(C)OC(=O)NCC(C#N)CNC(=O)OC(C)(C)C`, the TGI in [1], in experiment [2], in [3], in experiment [4], in [10] and in [5] was greater than 100 µM in each case. Also, the TGI in experiment [6], in [7] and in experiment [9] was greater than 100 µM throughout.
In the case of `COc1cc(Nc2ccnc(N3CCN(c4ccnc5cc(Cl)ccc45)CC3)n2)cc(OC)c1`, the GI50 in experiment [2] was 0.749 µM; in experiment [3], 3.17 µM; in experiment [5], 2.41 µM; in experiment [6], 1.39 µM; in experiment [7], 1.6 µM; in experiment [8], 0.738 µM. In addition, in experiment [9], the GI50 was 0.289 µM. In addition, the TGI in experiment [2] is 5.68 µM; in [3], greater than 36.3 µM; in experiment [5], greater than 100 µM; in experiment [6] it was greater than 100 µM; in [7] it was 4.6 µM; in experiment [8], 4.02 µM. In [9], this compound had a TGI of 2.13 µM.
`C[C@]12CC[C@@H]3c4ccc(O)c([N+](=O)[O-])c4CC[C@H]3[C@@H]1CC[C@@H]2NS(=O)(=O)c1ccc(C(F)(F)F)cc1`: the GI50 in experiment [1] was 2.17 µM; in experiment [2], 1.67 µM; in experiment [3] it was 2.65 µM; in experiment [4] it was 1.72 µM; in experiment [5], 1.81 µM; in experiment [6] it was 1.99 µM. The GI50 was 2.05 µM in experiment [7], 2.1 µM in [8] and 2.96 µM in [9]. The TGI in experiment [1] was 5.4 µM; in experiment [2], 3.07 µM; in experiment [3], 7.36 µM; in [4], 3.28 µM; in experiment [5], 3.72 µM; in experiment [6], 3.66 µM. For the same compound, the TGI worked out at 4.35 µM in experiment [7], 4.18 µM in experiment [8] and 10.6 µM in [9].
Turning to `S=C(N/N=C/c1cc(Cl)cc(Cl)c1)NC12CC3CC(CC(C3)C1)C2`, the GI50 in experiment [1] was greater than 100 µM; in experiment [2] it was 6.09 µM; in experiment [3], 5.06 µM; in experiment [4], greater than 100 µM; in [5], 13.6 µM; in experiment [6] it was 14.4 µM. Besides, the GI50 was 8.63 µM in experiment [7], 7.74 µM in [8] and 3.92 µM in experiment [9]. The TGI in experiment [1] is greater than 100 µM; in experiment [2], greater than 100 µM; in experiment [3], greater than 46 µM; in experiment [4], greater than 100 µM; in experiment [5], greater than 100 µM; in experiment [6], greater than 100 µM. For the same compound, the TGI in [7] is greater than 100 µM; in experiment [8], greater than 30.3 µM; in experiment [9], greater than 24.5 µM.
